The source made the active and inactive calls. The rule behind the calls is not given here.
Assays:
[1] = system: MCF7; experiment: Antiproliferative activity against human MCF7 cells assessed as reduction in cell viability measured after 48 hrs by MTT assay; format: functional, cell-based; details: MCF7, 48 h
[2] = system: A549; experiment: Antiproliferative activity against human A549 cells assessed as reduction in cell viability measured after 48 hrs by MTT assay; format: functional, cell-based; details: A549, 48 h
[3] = system: HeLa; experiment: Antiproliferative activity against human HeLa cells assessed as reduction in cell viability measured after 48 hrs by MTT assay; format: functional, cell-based
[4] = system: B16-F10; experiment: Antiproliferative activity against mouse B16-F10 cells assessed as reduction in cell viability measured after 48 hrs by MTT assay; format: functional, cell-based; details: B16-F10, 48 h
[5] = system: A2780/Taxol; experiment: Antiproliferative activity against human A2780T cells assessed as reduction in cell viability measured after 48 hrs by MTT assay; format: functional, cell-based
[6] = system: A2780S; experiment: Antiproliferative activity against human A2780S cells assessed as reduction in cell viability measured after 48 hrs by MTT assay; format: functional, cell-based
[7] = Resistance index, ratio of IC50 for antiproliferative activity against human A2780T cells assessed as reduction in cell viability measured after 48 hrs by MTT assay to IC50 for antiproliferative activity against human A2780S cells assessed as reduction in cell viability measured after 48 hrs by MTT assay; format: functional
[8] = system: A2780/Taxol; experiment: Inhibition of colony formation in human A2780T cells assessed as decrease in colonies at 100 nM measured after 24 hrs by photographic imaging analysis; format: functional, cell-based
[9] = system: B16-F10; experiment: Antitumor activity against mouse B16-F10 cells inoculated in BALB/c mouse assessed as tumor growth inhibition at 10 mg/kg, ip qd for 14 days by caliper method relative to control; format: functional; details: 336 h, time 14 day, read-out: TGI

Row | SMILES | IC50 [1] | IC50 [2] | IC50 [3] | IC50 [4] | IC50 [5] | IC50 [6] | Ratio IC50 [7] | inhibition [8] | inhibition in vivo at 10 mg/kg [9]
1 | COc1cc(-c2ccnc3cc(-c4ccc(S(C)(=O)=O)cc4)nn23)cc([Se]C)c1OC | 3.16 µM | 6.98 µM | 8.52 µM | 8.52 µM | – | – | – | – | –
2 | COc1cc(-c2n[nH]c3ccc(-c4ccc(C(=N)NO)cc4)cc23)cc(OC)c1OC | 3.16 µM | 2.98 µM | 3.79 µM | 1.6 µM | – | – | – | – | –
3 | COc1cc(-c2ccc3[nH]nc(-c4ccc(F)cc4)c3c2)cc(OC)c1OC | > 10 µM | > 10 µM | > 10 µM | > 10 µM | – | – | – | – | –
4 | CC(=O)O[C@H]1C(=O)[C@@]2(C)[C@H]([C@H](OC(=O)c3ccccc3)[C@]3(O)C[C@H](OC(=O)[C@H](O)[C@@H](NC(=O)c4ccccc4)c4ccccc4)C(C)=C1C3(C)C)[C@]1(OC(C)=O)CO[C@@H]1C[C@@H]2O [PACLITAXEL] | – | – | – | – | 3.16 µM | 0.0075 µM | 421.8 | inactive | 88.7%
5 | COc1cc(-c2nccn3c(-c4ccc5c(ccn5C)c4)cnc23)cc(OC)c1OC | > 10 µM | > 10 µM | > 10 µM | > 10 µM | – | – | – | – | –
6 | COc1cc(-c2cccc3[nH]c(-c4ccc(C#N)cc4)nc23)cc(OC)c1OC | > 10 µM | > 10 µM | > 10 µM | > 10 µM | – | – | – | – | –

Further compounds by falling IC50 [1], results first:

Row | IC50 [1] | IC50 [2] | IC50 [3] | IC50 [4] | IC50 [5] | IC50 [6] | SMILES | Ratio IC50 [7] | inhibition [8] | inhibition in vivo at 10 mg/kg [9]
7 | 2.38 µM | 1.04 µM | 2.04 µM | 1.71 µM | – | – | COc1cc(-c2n[nH]c3ccc(-c4cccc(C#N)c4)cc23)cc(OC)c1OC | – | – | –
8 | 0.7 µM | 2.6 µM | 1.54 µM | 0.746 µM | – | – | COc1cc(-c2cccc3[nH]c(-c4ccc5c(ccn5C)c4)nc23)cc(OC)c1OC | – | – | –
9 | 0.36 µM | 6.22 µM | 2.02 µM | 2.62 µM | – | – | COc1cc(-c2n[nH]c3ccc(-c4ccc5c(cnn5C)c4)cc23)cc(OC)c1OC | – | – | –
10 | 0.245 µM | 0.445 µM | 0.547 µM | 0.394 µM | – | – | COc1cc(-c2n[nH]c3ccc(-c4ccccc4)cc23)cc(OC)c1OC | – | – | –

Reference: ChEMBL document CHEMBL4808173, “Discovery of Novel Benzimidazole and Indazole Analogues as Tubulin Polymerization Inhibitors with Potent Anticancer Activities” (J Med Chem, 2021)
